Values joined by “and” are separate entries in the source; they are usually repeats but may differ in a detail not shown here. Identical values can stand only once.
How the values were obtained:
SCPMA = test: In-water applied herbicidal mixtures, greenhouse, transplanted paddy rice weeds; type: in vivo
Description: (§1) Weed seeds or nutlets of the desired test plant species were planted in puddled soil (mud) prepared by mixing a shredded, non-sterilized mineral soil (50.5 percent silt, 25.5 percent clay, and 24 percent sand, with a pH of about 7.6 and an organic matter content of about 2.9 percent) and water at a 1:1 volumetric ratio. The prepared mud was dispensed in 365 mL aliquots into 16-ounce (oz.) non-perforated plastic pots with a surface area of 86.59 square centimeters (cm^2) leaving a headspace of 3 centimeters (cm) in each pot Mud was allowed to dry overnight prior to planting or transplanting. Rice seeds were planted in Sun Gro MetroMix® 306 planting mixture, which typically has a pH of 6.0 to 6.8 and an organic matter content of about 30 percent, in plastic plug trays. Seedlings at the second or third leaf stage of growth were transplanted into 840 mL of mud contained in 32-oz. non-perforated plastic pots with a surface area of 86.59 cm^2 4 days prior to herbicide application. The paddy was created by filling the headspace of the pots with 2.5 to 3 cm of water. When required to ensure good germination and healthy plants, a fungicide treatment and/or other chemical or physical treatment was applied. The plants were grown for 4-22 days in a greenhouse with an approximate 14 hr photoperiod which was maintained at about 29′C during the day and 26° C. during the night. Nutrients were added as Osmocote® (19:6:12, N:P:K^+ minor nutrients) at 2 g per 16-oz. pot and 4 g per 32-oz. pot. Water was added on a regular basis to maintain the paddy flood, and supplemental lighting was provided with overhead metal halide 1000-Watt lamps as necessary. The plants were employed for testing when they reached the first through fourth true leaf stage.
(§2) Treatments consisted of the acid or esters of 4-amino-3-chloro-5-fluoro-6-(4-chloro-2-fluoro-3-methoxy-phenyl)pyridine-2-carboxylic acid (compound A) each formulated as an SC (suspension concentrate) and various herbicidal components alone and in combination. Forms of compound A were applied on an acid equivalent basis.
(§3) Other herbicidal components were applied on an active ingredient basis and included acetolactate synthase (ALS)-inhibiting herbicides formulated as Permit® 75 WDG, pyrazosulfuron-ethyl formulated as Agreen® WG or Sirius® G, and VLCFA inhibiting herbicide esprocarb (technical grade material).
(§4) Treatment requirements for each compound or herbicidal component were calculated based upon the rates being tested, the concentration of active ingredient or acid equivalent in the formulation, an application volume of 2 mL per component per pot, and an application area of 86.59 cm^2 per pot.
(§5) For formulated compounds, a measured amount was placed in an individual 100 or 200 mL glass vial and was dissolved in a volume of 1.25% (v/v) Agri-Dex® crop oil concentrate to obtain application solutions.
(§6) For technical grade compounds, a weighed amount was placed in an individual 100 to 200 mL glass vial and was dissolved in a volume of acetone to obtain concentrated stock solutions. […] The concentrated stock solutions obtained were diluted with an equivalent volume of an aqueous mixture containing 2.5% (v/v) crop oil concentrate so that the final application solutions contained 1.25% (v/v) crop oil concentrate.
(§7) Applications were made by injecting with a pipetter appropriate amounts of the application solutions, individually and sequentially, into the aqueous layer of the paddy. Control plants were treated in the same manner with the solvent blank. Applications were made so that all treated plant material received the same concentrations of acetone and crop oil concentrate.
(§8) The treated plants and control plants were placed in a greenhouse as described above and water was added as needed to maintain a paddy flood. […]

BRAPP = test: Post-emergence foliar-applied herbicidal mixtures, greenhouse, direct seeded rice weeds; type: in vivo
Text: (§9) Seeds or nutlets of the desired test plant species were planted in a soil matrix prepared by mixing a loam or sandy loam soil (e.g., 28.6 percent silt, 18.8 percent clay, and 52.6 percent sand, with a pH of about 5.8 and an organic matter content of about 1.8 percent) and calcareous grit in an 80 to 20 ratio. The soil matrix was contained in plastic pots with a volume of 1 quart and a surface area of 83.6 square centimeters (cm^2). When required to ensure good germination and healthy plants, a fungicide treatment and/or other chemical or physical treatment was applied. The plants were grown for 8-22 days in a greenhouse with an approximate 14 hr photoperiod which was maintained at about 29° C. during the day and 26° C. during the night. Nutrients (Peters Excel® 15-5-15 5-Ca 2-Mg and iron chelate) were applied in the irrigation solution as needed and water was added on a regular basis. Supplemental lighting was provided with overhead metal halide 1000-Watt lamps as necessary. The plants were employed for testing when they reached the first through fourth true leaf stage.
(§10) Treatments consisted of the acid or esters of 4-amino-3-chloro-5-fluoro-6-(4-chloro-2-fluoro-3-methoxy-phenyl)pyridine-2-carboxylic acid (Compound A), each formulated as an SC (suspension concentrate), and various herbicidal components alone and in combination. Forms of compound A were applied on an acid equivalent basis.
(§11) Other herbicidal components were applied on an active ingredient basis and included the acetolactate synthase (ALS)-inhibiting herbicides halosulfuron-methyl formulated as Permit® 75 WDG, pyrazosulfuron-ethyl formulated as Agreen® WG or Sirius® G, and the VLCFA inhibiting herbicide esprocarb (technical grade material).
(§12) Treatment requirements were calculated based upon the rates being tested, the concentration of active ingredient or acid equivalent in the formulation, and a 12 mL application volume at a rate of 187 L/ha.
(§13) For treatments comprised of formulated compounds, measured amounts of compounds were placed individually in 25 mL glass vials and diluted in a volume of 1.25% (v/v) Agri-Dex® crop oil concentrated to obtain 12× stock solutions. […] Application solutions were prepared by adding an appropriate amount of each stock solution (e.g., 1 mL) and diluted to the appropriate final concentrations with the addition of 10 mL of an aqueous mixture of 1.25% (v/v) crop oil concentrate so that the final spray solutions contained 1.25+/−0.05% (v/v) crop oil concentrate.
(§14) For treatments comprised of technical compounds, weighed amounts can be placed individually in 25 mL glass vials and dissolved in a volume of 97:3 v/v acetone/DMSO to obtain 12× stock solutions. […] Application solutions can be prepared by adding an appropriate amount of each stock solution (e.g., 1 mL) and diluted to the appropriate final concentrations with the addition of 10 mL of an aqueous mixture of 1.5% (v/v) crop oil concentrate so that the final spray solutions contain 1.25% (v/v) crop oil concentrate. When technical materials are used, the concentrated stock solutions can be added to the spray solutions so that the final acetone and DMSO concentrations of the application solutions are 16.2% and 0.5%, respectively.
(§15) For treatments comprised of formulated and technical compounds, weighed amounts of the technical materials were placed individually in 25 mL glass vials and dissolved in a volume of 97:3 v/v acetone/DMSO to obtain 12× stock solutions, and measured amounts of the formulated compounds were placed individually in 25 mL glass vials and diluted in a volume of 1.5% (v/v) crop oil concentrate or water to obtain 12× stock solutions. […] Application solutions were prepared by adding an appropriate amount of each stock solution (e.g., 1 mL) and diluted to the appropriate final concentrations with the addition of an appropriate amount of an aqueous mixture of 1.5% (v/v) crop oil concentrate so that the final spray solutions contained 1.25% (v/v) crop oil concentrate. […]

FIMMI = test: In-water applied herbicidal mixtures, greenhouse, transplanted paddy rice weeds; type: in vivo, Fimbristylis miliacea (L.) Vahl; details: 4.38 g ae/ha
Description: as §1, §2, §3, §4, §5, §6
Applications were made by injecting with a pipetter appropriate amounts of the application solutions, individually and sequentially, into the aqueous layer of the paddy. […]

ECHOR = test: as above; type: in vivo, Echinochloa oryzoides (Ard.) Fritsch
Description: as §1, §2, §3, §4, §5, §6, §7, §8

DIGSA = test: Post-emergence foliar-applied herbicidal mixtures, greenhouse, direct seeded rice weeds; type: in vivo, Digitaria sanguinalis (L.) Scop.
Text: as §9, §10, §11, §12, §13, §14, §15

CYPIR = test: as above; type: in vivo, Cyperus iria L.
Text: as §9, §10, §11, §12
(§16) For treatments comprised of formulated compounds, measured amounts of compounds were placed individually in 25 mL glass vials and diluted in a volume of 1.25% (v/v) Agri-Dex® crop oil concentrated to obtain 12× stock solutions. […]
(§17) For treatments comprised of formulated and technical compounds, weighed amounts of the technical materials were placed individually in 25 mL glass vials and dissolved in a volume of 97:3 v/v acetone/DMSO to obtain 12× stock solutions, and measured amounts of the formulated compounds were placed individually in 25 mL glass vials and diluted in a volume of 1.5% (v/v) crop oil concentrate or water to obtain 12× stock solutions. […]

CYPRO = test: In-water applied herbicidal mixtures, greenhouse, transplanted paddy rice weeds; type: in vivo, Cyperus rotundus L.
Description: as §1, §2, §3, §4, §5, §6, §7, §8

SCPJU = test: Post-emergence foliar-applied herbicidal mixtures, greenhouse, direct seeded rice weeds; type: in vivo, Schoenoplectus juncoides (Roxb.) Palla; details: 8.75 g ae/ha
Text: as §9, with “stage. […]” for “stage.”
as §12, §16, §17

LEFCH [1] = test: as above; type: in vivo, Leptochloa chinensis (L.) Nees
Text: as §9, §10, §11, §12, §13, §14, §15

LEFCH [2] = test: In-water applied herbicidal mixtures, greenhouse, transplanted paddy rice weeds; type: in vivo, Leptochloa chinensis (L.) Nees
Description: as §1, with “Water was added on a regular basis to maintain the paddy flood, and supplemental lighting was provided with overhead metal halide 1000-Watt lamps as necessary. The plants were employed for testing when they reached the first through fourth true leaf stage.” left out
as §4
For formulated compounds, a measured amount was placed in an individual 100 or 200 mL glass vial and was dissolved in a volume of 1.25% (v/v) Agri-Dex® crop oil concentrate to obtain application solutions. […]

## COc1c(Cl)ccc(-c2nc(C(=O)OCc3ccccc3)c(Cl)c(N)c2F)c1F [Compound A Benzyl Ester]
SCPMA; 4.38 g ae/ha
  Visual Weed Control (%) - 22 DAA SCPMA Obs: 0%
SCPMA; 8.75 g ae/ha
  Visual Weed Control (%) - 22 DAA SCPMA Obs: 0%
SCPMA; 17.5 g ae/ha
  Visual Weed Control (%) - 22 DAA SCPMA Obs: 0%
SCPMA; 70 g ae/ha
  Visual Weed Control (%) - 20 DAA SCPMA Obs: 0%
BRAPP; 4.38 g ae/ha
  Visual Weed Control (%) - 20 DAA BRAPP Obs: 40%
  Visual Weed Control (%) - 21 DAA BRAPP Obs: 50%
BRAPP; 8.75 g ae/ha
  Visual Weed Control (%) - 20 DAA BRAPP Obs: 70%
FIMMI
  Visual Weed Control (%) - 21 DAA FIMMI Obs: 20%
ECHOR; 4.38 g ae/ha
  Visual Weed Control (%) - 21 DAA ECHOR Obs: 0%
ECHOR; 8.75 g ae/ha
  Visual Weed Control (%) - 21 DAA ECHOR Obs: 10%
ECHOR; 35 g ae/ha
  Visual Weed Control (%) - 20 DAA ECHOR Obs: 73%
DIGSA; 17.5 g ae/ha
  Visual Weed Control (%) - 21 DAA DIGSA Obs: 23%
DIGSA; 35 g ae/ha
  Visual Weed Control (%) - 21 DAA DIGSA Obs: 38%
CYPIR; 4.38 g ae/ha
  Visual Weed Control (%) - 22 DAA CYPIR Obs: 25%
CYPIR; 8.75 g ae/ha
  Visual Weed Control (%) - 22 DAA CYPIR Obs: 50%
CYPRO; 4.38 g ae/ha
  Visual Weed Control (%) - 21 DAA CYPRO Obs: 20% and 30%
CYPRO; 8.75 g ae/ha
  Visual Weed Control (%) - 21 DAA CYPRO Obs: 65% and 60%
SCPJU
  Visual Weed Control (%) - 22 DAA SCPJU Obs: 80%
LEFCH [1]; 4.38 g ae/ha
  Visual Weed Control (%) - 20 DAA LEFCH Obs: 0%
LEFCH [1]; 8.75 g ae/ha
  Visual Weed Control (%) - 20 DAA LEFCH Obs: 20%
LEFCH [1]; 17.5 g ae/ha
  Visual Weed Control (%) - 20 DAA LEFCH Obs: 40%
LEFCH [2]; 4.38 g ae/ha
  Visual Weed Control (%) - 22 DAA LEFCH Obs: 0%

## CCOC(=O)c1cnn(C)c1S(=O)(=O)NC(=O)Nc1nc(OC)cc(OC)n1 [Pyrazosulfuron-ethyl, ethyl 5-[[[[(4,6-dimethoxy-2-pyrimidinyl)amino]carbonyl]amino]sulfonyl]-1-methyl-1H-pyrazole-4-carboxylate, reference compound]
SCPMA; 17.5 g ai/ha (Sirius G)
  Visual Weed Control (%) - 22 DAA SCPMA Obs: 80%
SCPMA; 35 g ai/ha (Sirius G)
  Visual Weed Control (%) - 22 DAA SCPMA Obs: 70%
BRAPP; 15 g ai/ha (Agreen WG)
  Visual Weed Control (%) - 21 DAA BRAPP Obs: 0%
BRAPP; 30 g ai/ha (Agreen WG)
  Visual Weed Control (%) - 21 DAA BRAPP Obs: 0%
BRAPP; 60 g ai/ha (Agreen WG)
  Visual Weed Control (%) - 21 DAA BRAPP Obs: 10%
ECHOR; 17.5 g ai/ha (Sirius G)
  Visual Weed Control (%) - 22 DAA ECHOR Obs: 0%
ECHOR; 35 g ai/ha (Sirius G)
  Visual Weed Control (%) - 22 DAA ECHOR Obs: 0%
ECHOR; 70 g ai/ha (Sirius G)
  Visual Weed Control (%) - 20 DAA ECHOR Obs: 70%
DIGSA; 120 g ai/ha (Agreen WG)
  Visual Weed Control (%) - 20 DAA DIGSA Obs: 23%
  Visual Weed Control (%) - 21 DAA DIGSA Obs: 23%
LEFCH [2]; 17.5 g ai/ha (Sirius G)
  Visual Weed Control (%) - 22 DAA LEFCH Obs: 0%
LEFCH [2]; 35 g ai/ha (Sirius G)
  Visual Weed Control (%) - 22 DAA LEFCH Obs: 0%

From patent US8809232B2, “Herbicidal compositions comprising 4-amino-3-chloro-5-fluoro-6-(4-chloro-2-fluoro-3-methoxyphenyl) pyridine-2-carboxylic acid or a derivative thereof and halosulfuron, pyrazosulfuron and esprocarb” (Dow Agrosciences LLC, priority 2012, dated 2014)
